In PubChem BioAssay (NCI):
“And” between values parts separate entries of the source, which are not always exact repeats. Equal entries are not always repeated.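 Exposure lasted 48 hours, with cells grown in 96-well plates and compounds tested at five concentrations. GI50 marks 50% less growth. The concentration for full growth arrest is given as TGI.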 Where a SMILES comes first, the peptide text is derived from it. [ ]: non-standard residue; d: D form. The star is where a group is joined. NMeF = CN[CH](Cc1ccccc1)C(=O)O; NMeV = CN[CH](C(=O)O)C(C)C; Boc = CC(C)(C)OC(=O)*

What follows are molecules tested on DMS 273 small cell lung (assay: NCI tumour cell line growth inhibition, 48 h).
With `C=CCCN1CCc2c([nH]c3ccccc23)C1C(=O)O` (stereo not drawn) the TGI was > 100 µM.
In the case of `COc1cc(/C=C(\C#N)C(N)=O)cc(Br)c1O`, the TGI is reported as > 100 µM.
With `CC1NC(=O)CC(c2ccccc2)N(N=O)C1c1ccccc1` (stereo not drawn) the TGI was > 75.1 µM.
`CCOC(=O)CC1(C(=O)OCC)c2[nH]c3ccccc3c2CCN1Cc1ccccc1` (stereo not drawn) showed a TGI of 32 µM.
For `CC(C)C(NC(=O)OC(C)(C)C)C(=O)N(C)C(Cc1ccccc1)C(=O)N(C)C(C(=O)O)C(C)C` (stereo not drawn) (Boc-Val-[NMeF]-[NMeV]-OH; configuration not given here), the TGI was > 100 µM.
For `C1=CC2SSSC2C1` (stereo not drawn), the TGI was > 100 µM.
For `NC(N)=N/N=C/c1c[nH]c2ccccc12`, the TGI was > 100 µM.
For `O=P(Nc1ccc(Cl)cc1)(Oc1ccccc1)N(CCCl)CCCl` (stereo not drawn), the TGI was > 100 µM.

These molecules were tested on KM20L2 colon (assay: NCI tumour cell line growth inhibition, 48 h).
For `C=CCCN1CCc2c([nH]c3ccccc23)C1C(=O)O` (stereo not drawn), the TGI was > 100 µM.
For `COc1cc(/C=C(\C#N)C(N)=O)cc(Br)c1O`, the TGI was > 100 µM.
`CC1NC(=O)CC(c2ccccc2)N(N=O)C1c1ccccc1` (stereo not drawn) showed a TGI of 40 µM.
With `CCOC(=O)CC1(C(=O)OCC)c2[nH]c3ccccc3c2CCN1Cc1ccccc1` (stereo not drawn) the TGI was 32.5 µM.
For `CC(C)C(NC(=O)OC(C)(C)C)C(=O)N(C)C(Cc1ccccc1)C(=O)N(C)C(C(=O)O)C(C)C` (stereo not drawn) (Boc-Val-[NMeF]-[NMeV]-OH; configuration not given here), the TGI was > 100 µM.
With `C1=CC2SSSC2C1` (stereo not drawn) the TGI was > 100 µM.
`NC(N)=N/N=C/c1c[nH]c2ccccc12` was tested, and the TGI was > 100 µM.
In the case of `O=P(Nc1ccc(Cl)cc1)(Oc1ccccc1)N(CCCl)CCCl` (stereo not drawn), the TGI is reported as > 100 µM.

The molecules below were run on M19-MEL melanoma (assay: NCI tumour cell line growth inhibition, 48 h).
For `C=CCCN1CCc2c([nH]c3ccccc23)C1C(=O)O` (stereo not drawn), the TGI was > 100 µM.
`COc1cc(/C=C(\C#N)C(N)=O)cc(Br)c1O` was tested, and the TGI was > 100 µM.
`CC1NC(=O)CC(c2ccccc2)N(N=O)C1c1ccccc1` (stereo not drawn) was tested, and the TGI was > 100 µM.
`CCOC(=O)CC1(C(=O)OCC)c2[nH]c3ccccc3c2CCN1Cc1ccccc1` (stereo not drawn) gave a TGI of 27.6 µM.
For `CC(C)C(NC(=O)OC(C)(C)C)C(=O)N(C)C(Cc1ccccc1)C(=O)N(C)C(C(=O)O)C(C)C` (stereo not drawn) (Boc-Val-[NMeF]-[NMeV]-OH; configuration not given here), the TGI was > 100 µM.
In the case of `C1=CC2SSSC2C1` (stereo not drawn), the TGI is reported as > 100 µM.
In the case of `O=P(Nc1ccc(Cl)cc1)(Oc1ccccc1)N(CCCl)CCCl` (stereo not drawn), the TGI is reported as > 100 µM.

Each molecule was assayed on P388 leukemia (assay: NCI tumour cell line growth inhibition, 48 h).
`COc1cc(/C=C(\C#N)C(N)=O)cc(Br)c1O` was tested, and the GI50 was 85.3 µM and 44.5 µM and the TGI was > 100 µM.
With `CC1NC(=O)CC(c2ccccc2)N(N=O)C1c1ccccc1` (stereo not drawn) the TGI was > 57.8 µM.

Each molecule was assayed on P388/ADR leukemia (assay: NCI tumour cell line growth inhibition, 48 h).
With `COc1cc(/C=C(\C#N)C(N)=O)cc(Br)c1O` the TGI was > 100 µM.
For `CC1NC(=O)CC(c2ccccc2)N(N=O)C1c1ccccc1` (stereo not drawn), the TGI was > 60.2 µM.

These molecules were tested on RXF-631 renal (assay: NCI tumour cell line growth inhibition, 48 h).
For `C=CCCN1CCc2c([nH]c3ccccc23)C1C(=O)O` (stereo not drawn), the TGI was > 100 µM.
With `O=P(Nc1ccc(Cl)cc1)(Oc1ccccc1)N(CCCl)CCCl` (stereo not drawn) the TGI was > 100 µM.

The molecules below were run on SN12K1 renal (assay: NCI tumour cell line growth inhibition, 48 h).
With `COc1cc(/C=C(\C#N)C(N)=O)cc(Br)c1O` the TGI was > 100 µM.
Molecule `CC1NC(=O)CC(c2ccccc2)N(N=O)C1c1ccccc1` (stereo not drawn) has a TGI of 48.3 µM.

The molecules below were run on XF 498 CNS (assay: NCI tumour cell line growth inhibition, 48 h).
For `C=CCCN1CCc2c([nH]c3ccccc23)C1C(=O)O` (stereo not drawn), the TGI was > 100 µM.
With `COc1cc(/C=C(\C#N)C(N)=O)cc(Br)c1O` the TGI was > 100 µM.
`CC1NC(=O)CC(c2ccccc2)N(N=O)C1c1ccccc1` (stereo not drawn) showed a TGI of 75.3 µM.
In the case of `CCOC(=O)CC1(C(=O)OCC)c2[nH]c3ccccc3c2CCN1Cc1ccccc1` (stereo not drawn), the TGI is reported as 41.4 µM.
With `CC(C)C(NC(=O)OC(C)(C)C)C(=O)N(C)C(Cc1ccccc1)C(=O)N(C)C(C(=O)O)C(C)C` (stereo not drawn) (Boc-Val-[NMeF]-[NMeV]-OH; configuration not given here) the TGI was > 100 µM.
With `C1=CC2SSSC2C1` (stereo not drawn) the TGI was > 100 µM.
